{"source": "patent US20030106108A1", "about": "“Genetic transformation method for zoysiagrass” (priority 2001, published 2003)", "key": {"zoysiagrass type 1 calli": {"system": "zoysiagrass type 1 calli", "assay": "Growth of type 1 calli on MS media with combinations of 2,4-D and BA", "assay_type": "cell-based, Zoysia japonica Steud.", "conditions": "for Callus fresh weight, Total / Callus fresh weight, Type 1 / Callus fresh weight, Type 2 / Callus fresh weight, Type 3 / Callus fresh weight, Type 4: BA 0 mg/l, 5 weeks, dark, 28° C., mean of ten calli", "description": "To investigate morphological changes occurring on type 1 calli subculturing, type 1 calli were transferred to a MS medium containing various hormonal combinations of 2,4-D (1, 2, 4, and 8 mg/liter) and BA (0, 0.01, and 0.1 mg/liter) in the dark. After five weeks of subculturing in the dark, four callus types were observed. Each callus type was weighed, and the weight ratios were calculated. Calli of types 2, 3, and 4 were also examined in an identical way as with type 1 callus.\nTen mg of type 1 calli was grown on MS media with various combinations of 2,4-D and BA and 2 g/liter gelrite for 5 weeks in the dark at 28° C. Each value represents a mean calculated from ten calli. Callus morphologies were rated by; 1=whitish-yellow, compact and non-friable, 2=white, compact and friable, 3=yellow, compact and very friable, 4=translucent, soft and watery."}, "zoysiagrass calli": {"system": "zoysiagrass calli", "assay_type": "cell-based, Zoysia japonica Steud.", "description": "Acetosyringone was prepared by dissolving an appropriate amount of powder in dimethyl sulfoxide at a concentration of 100 mg/ml and stored at 4° C. in the dark. It was added to the sterile medium to an appropriate final concentration whenever required. The calli proliferated on the MSCG4 medium were immersed in the Agrobacterial cell suspension for 1 min. After dehydration on sterile filter paper, the calli were cultivated on a co-cultivation medium (MSAS) with 4 mg/liter 2,4-D at 26±1° C. in the dark for 15 days. After co-cultivation, the calli were thoroughly washed by vortexing in sterile double-distilled water supplemented with a surfactant (0.02% pluronic F68) until the washing solution becomes transparent and finally washed in sterile double-distilled water containing 1000 mg/liter calbenicillin and 0.02% surfactant. After washing, an half of the calli were used for GUS activity assay by the method described by Schenk et al. (1998).\nSeveral factors were tested to optimize transformation efficiency. (1) For comparison of different callus types on invasiveness, types 1, 2 and 3 calli were co-cultivated on 2,4-D-free MSAS media for 6 days; (2) For comparison of co-cultivation periods, calli were co-cultivated for 3, 6, 9, 12, 15, 18, 21, 24 and 27 days; (3) For examination of media components, different amounts of 2,4-D (0, 1, 2, 4, and 8 mg/liter), CaCl2 (0, 11, 110, 220, and 440 mg/liter), and acetosyringone (0, 10, 50, 100, and 200 mg/liter) were added to the MSAS media."}, "Agrobacterial cell": {"system": "Agrobacterial cell", "assay": "Agrobacterium elimination in shoot induction media", "assay_type": "cell-based, Agrobacterium tumefaciens", "conditions": "125 mg/liter calbenicillin-containing media", "description": "The optimized conditions for the A. tumefaciens infection of zoysiagrass calli included the use of type 3 calli as donor, a co-cultivation period of 9 days, the exclusion of 2,4-D and CaCl2 from the media, and the use of 100 mg/l acetosyringone. After pGPTV-HB co-cultivation, calli were transferred to filter paper-laid MSCG media and cultured for 2-4 weeks in the dark. The calli were then transferred to filter paper-laid MSSI medium for shoot induction. Various concentrations (125, 250, and 500 mg/liter) of calbenicillin were added to the shoot induction medium. Induced shoots were subsequently transferred to the MSRS medium for rooting and selection for 4 weeks. Five mg/liter bialaphos and 10 mg/liter hygromycin were used for selection of bialaphos- and hygromycin-resistant plantlets. The rooting plants on the selection medium were transferred to the MSPG medium without antibiotics and bialaphos and further grown. The fully grown plants were then transferred to a pot containing soil and grown in an environmentally controlled growth chamber set at 30° C., 80% relative humidity and 18-hour photoperiod with 30 μmolm^−2s^−1 irradiance provided by cool white fluorescent tubes. When the roots developed enough, pots were transferred to green house. […]"}}, "data": [{"smiles": "O=C(O)COc1ccc(Cl)cc1Cl", "note": "[2,4-D, 2,4-dichlorophenoxyacetic acid]", "values": [{"measurement": "Callus fresh weight, Total", "setting": "zoysiagrass type 1 calli; 2,4-D 1 mg/l", "result": 81.5, "unit": "mg"}, {"measurement": "Callus fresh weight, Type 1", "setting": "zoysiagrass type 1 calli; 2,4-D 1 mg/l", "result": 45.8, "unit": "mg"}, {"measurement": "Callus fresh weight, Type 2", "setting": "zoysiagrass type 1 calli; 2,4-D 1 mg/l", "result": 22.3, "unit": "mg"}, {"measurement": "Callus fresh weight, Type 3", "setting": "zoysiagrass type 1 calli; 2,4-D 1 mg/l", "result": 0, "unit": "mg"}, {"measurement": "Callus fresh weight, Type 4", "setting": "zoysiagrass type 1 calli; 2,4-D 1 mg/l", "result": 13.4, "unit": "mg"}, {"measurement": "Callus fresh weight, Total", "setting": "zoysiagrass type 1 calli; 2,4-D 2 mg/l", "result": 37.0, "unit": "mg"}, {"measurement": "Callus fresh weight, Type 1", "setting": "zoysiagrass type 1 calli; 2,4-D 2 mg/l", "result": 18.8, "unit": "mg"}, {"measurement": "Callus fresh weight, Type 2", "setting": "zoysiagrass type 1 calli; 2,4-D 2 mg/l", "result": 2.3, "unit": "mg"}, {"measurement": "Callus fresh weight, Type 3", "setting": "zoysiagrass type 1 calli; 2,4-D 2 mg/l", "result": 1.5, "unit": "mg"}, {"measurement": "Callus fresh weight, Type 4", "setting": "zoysiagrass type 1 calli; 2,4-D 2 mg/l", "result": 14.5, "unit": "mg"}, {"measurement": "Callus fresh weight, Total", "setting": "zoysiagrass type 1 calli; 2,4-D 4 mg/l", "result": 29.6, "unit": "mg"}, {"measurement": "Callus fresh weight, Type 1", "setting": "zoysiagrass type 1 calli; 2,4-D 4 mg/l", "result": 11.4, "unit": "mg"}, {"measurement": "Callus fresh weight, Type 2", "setting": "zoysiagrass type 1 calli; 2,4-D 4 mg/l", "result": 0, "unit": "mg"}, {"measurement": "Callus fresh weight, Type 3", "setting": "zoysiagrass type 1 calli; 2,4-D 4 mg/l", "result": 0.9, "unit": "mg"}, {"measurement": "Callus fresh weight, Type 4", "setting": "zoysiagrass type 1 calli; 2,4-D 4 mg/l", "result": 17.2, "unit": "mg"}, {"measurement": "Number of GUS blue spots per 1 g fresh weight of calli, effect of 2,4-D", "setting": "zoysiagrass calli; 2,4-D 0, 1, 2, 4, 8 mg/liter in co-cultivation medium, 9 days of co-cultivation", "result": "decreased as the 2,4-D concentration increased"}]}, {"smiles": "c1ccc(CNc2ncnc3[nH]cnc23)cc1", "note": "[BA]", "values": [{"measurement": "Reduction of incidence rate of non-regenerable type 4 calli", "setting": "zoysiagrass type 1 calli; addition of 0.01 mg/liter BA in combination with 2,4-D", "result": "1.8-3.4 times"}]}, {"smiles": "[Ca+2].[Cl-].[Cl-]", "note": "[CaCl2]", "values": [{"measurement": "Number of GUS blue spots per 1 g fresh weight calli, effect of CaCl2", "setting": "zoysiagrass calli; CaCl2 0, 11, 110, 220, 440 mg/liter in co-cultivation medium", "result": "decreased as the CaCl2 concentration increased"}]}, {"smiles": "COc1cc(C(C)=O)cc(OC)c1O", "note": "[acetosyringone]", "values": [{"measurement": "Increase of the number of blue spots (factor)", "setting": "zoysiagrass calli; 50 mg/liter acetosyringone in co-cultivation medium vs acetosyringone-free medium", "result": 9}, {"measurement": "Transformation efficiency", "setting": "zoysiagrass calli; 30˜70 mg/liter acetosyringone during co-cultivation", "result": "greatly enhanced"}, {"measurement": "Effect on the transformation", "setting": "zoysiagrass calli; higher than 100 mg/liter acetosyringone", "result": "negative effect"}]}, {"smiles": "CC1(C)S[C@@H]2[C@H](NC(=O)C(C(=O)O)c3ccccc3)C(=O)N2[C@H]1C(=O)O", "note": "(stereo partly shown) [calbenicillin]", "values": [{"measurement": "Agrobacterial cell contamination of media", "setting": "Agrobacterial cell", "result": "sometimes observed"}]}]}
